Measured values published in patent US20110028686A1, “Protein binding miniature proteins” (Yale University, priority 2000, published 2011).
Several values for one entry are separate records, joined by “and”; a condition that tells them apart may be missing. Equal values may be shown once. Read-outs that look alike come from different tables or passages of the source. Ends that are not written are not given here. Peptide text beside a SMILES is read from it. * marks the point of attachment. Fluorescein(5-NHCOCH2) = O=C(C*)Nc1ccc2c(c1)C(=O)OC21c2ccc(O)cc2Oc2cc(O)ccc21

Experiments:
CBP KIX K606A = molecular target: T1, CBP KIX K606A (Mus musculus, UniProt P45481, K606A); experiment: Equilibrium fluorescence polarization, CBP KIX variant K606A; type: binding; conditions: 25° C.
T1 construct: made in house; host or cells: E. coli BL21(DE3) pArg

CBP KIX L599A = molecular target: T2, CBP KIX L599A (Mus musculus, UniProt P45481, L599A); experiment: Equilibrium fluorescence polarization, CBP KIX variant L599A; type: binding; conditions: 25° C.
T2 construct: made in house; host or cells: E. coli BL21(DE3) pArg

CBP KIX I657A = molecular target: T3, CBP KIX I657A (Mus musculus, UniProt P45481, I657A); experiment: Equilibrium fluorescence polarization, CBP KIX variant I657A; type: binding; conditions: 25° C.
T3 construct: made in house; host or cells: E. coli BL21(DE3) pArg

CBP KIX L603A = molecular target: T4, CBP KIX L603A (Mus musculus, UniProt P45481, L603A); experiment: Equilibrium fluorescence polarization, CBP KIX variant L603A; type: binding; conditions: 25° C.
T4 construct: made in house; host or cells: E. coli BL21(DE3) pArg

CBP KIX I660A = molecular target: T5, CBP KIX I660A (Mus musculus, UniProt P45481, I660A); experiment: Equilibrium fluorescence polarization, CBP KIX variant I660A; type: binding; conditions: 25° C.
T5 construct: made in house; host or cells: E. coli BL21(DE3) pArg

[1] = molecular target: T6, HisKIX (His-tagged CBP KIX domain) (Mus musculus, UniProt P45481); experiment: Equilibrium fluorescence polarization, HisKIX binding; conditions: 25° C.
T6 construct: The CBP KIX-coding region (residues 586 to 672) of pGEX-KT KIX 10-672; made in house; host or cells: E. coli BL21(DE3) pArg

CBP KIX Q661A = molecular target: T7, CBP KIX Q661A (Mus musculus, UniProt P45481, Q661A); experiment: Equilibrium fluorescence polarization, CBP KIX variant Q661A; type: binding; conditions: 25° C.
T7 construct: made in house; host or cells: E. coli BL21(DE3) pArg

CBP KIX Y650A = molecular target: T8, CBP KIX Y650A (Mus musculus, UniProt P45481, Y650A); experiment: Equilibrium fluorescence polarization, CBP KIX variant Y650A; type: binding; conditions: 25° C.
T8 construct: made in house; host or cells: E. coli BL21(DE3) pArg

CBP KIX wild type = molecular target: T9, CBP KIX wild type (Mus musculus, UniProt P45481); experiment: Equilibrium fluorescence polarization, wild type CBP KIX; type: binding; conditions: 25° C.
T9 construct: made in house; host or cells: E. coli BL21(DE3) pArg

Carbonic anhydrase II = molecular target: T10, Carbonic anhydrase II (Homo sapiens, UniProt P00918); experiment: Fluorescence polarization specificity, carbonic anhydrase II; type: binding; conditions: carbonic anhydrase II as target protein; read-out: Kd CA
T10 construct: purchased Sigma
Source text: (§1) Given the myriad protein surfaces present in the cell, the utility of molecules that recognize protein surfaces will depend on their ability to interact selectively with the desired protein.

CBP KIX Y658A = molecular target: T11, CBP KIX Y658A (Mus musculus, UniProt P45481, Y658A); experiment: Equilibrium fluorescence polarization, CBP KIX variant Y658A; type: binding; conditions: 25° C.
T11 construct: made in house; host or cells: E. coli BL21(DE3) pArg

CBP KIX E655A = molecular target: T12, CBP KIX E655A (Mus musculus, UniProt P45481, E655A); experiment: Equilibrium fluorescence polarization, CBP KIX variant E655A; type: binding; conditions: 25° C.
T12 construct: made in house; host or cells: E. coli BL21(DE3) pArg

Calmodulin = molecular target: T13, Calmodulin (Homo sapiens, UniProt P0DP23); experiment: Fluorescence polarization specificity, calmodulin; type: binding; conditions: calmodulin as target protein; read-out: Kd CalM
T13 construct: purchased Sigma
Source text: as §1

CBP KIX LL652-3AA = molecular target: T14, CBP KIX LL652-3AA (Mus musculus, UniProt P45481, L652A/L653A); experiment: Equilibrium fluorescence polarization, CBP KIX variant LL652-3AA; type: binding; conditions: 25° C.
T14 construct: made in house; host or cells: E. coli BL21(DE3) pArg

CBP KIX K662A = molecular target: T15, CBP KIX K662A (Mus musculus, UniProt P45481, K662A); experiment: Equilibrium fluorescence polarization, CBP KIX variant K662A; type: binding; conditions: 25° C.
T15 construct: made in house; host or cells: E. coli BL21(DE3) pArg

CBP KIX Y658F = molecular target: T16, CBP KIX Y658F (Mus musculus, UniProt P45481, Y658F); experiment: Equilibrium fluorescence polarization, CBP KIX variant Y658F; type: binding; conditions: 25° C.
T16 construct: made in house; host or cells: E. coli BL21(DE3) pArg

GST-KIX = molecular target: T17, GST-KIX (Mus musculus, UniProt P45481); experiment: Fluorescence polarization, wild type GST-KIX; type: binding
T17 construct: pGST-ΔKIX(588-683) (a gift from Jennifer Nyborg); made in house; host or cells: E. coli BL21(DE3) pArg

KIX = conditions: various techniques; isothermal titration calorimetry for KID(129-149)^P; read-out: previously reported Kd of KID^P·KIX complexes; cited from earlier work
Sequence of KIX (Q92793 587-673 limits assumed): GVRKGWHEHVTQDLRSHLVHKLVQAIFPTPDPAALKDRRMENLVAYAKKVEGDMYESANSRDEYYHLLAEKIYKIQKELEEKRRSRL

T6 sequence (P45481 586-672): as the sequence (Q92793 587-673 limits assumed) above
T15 sequence (P45481 586-665 K662A limits assumed): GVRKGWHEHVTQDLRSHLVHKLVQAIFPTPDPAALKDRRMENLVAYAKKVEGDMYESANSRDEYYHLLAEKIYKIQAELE
T11 sequence (P45481 586-665 Y658A limits assumed): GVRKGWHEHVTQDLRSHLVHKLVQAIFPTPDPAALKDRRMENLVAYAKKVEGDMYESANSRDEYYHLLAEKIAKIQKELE
T5 sequence (P45481 586-665 I660A limits assumed): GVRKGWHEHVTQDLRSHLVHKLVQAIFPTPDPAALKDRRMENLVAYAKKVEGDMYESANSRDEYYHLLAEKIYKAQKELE
T12 sequence (P45481 586-665 E655A limits assumed): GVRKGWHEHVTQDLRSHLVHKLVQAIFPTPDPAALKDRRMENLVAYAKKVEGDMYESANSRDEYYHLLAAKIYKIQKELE
T3 sequence (P45481 586-665 I657A limits assumed): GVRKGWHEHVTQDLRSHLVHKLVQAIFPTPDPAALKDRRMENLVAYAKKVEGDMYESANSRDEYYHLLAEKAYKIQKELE
T17 sequence (P45481 588-683): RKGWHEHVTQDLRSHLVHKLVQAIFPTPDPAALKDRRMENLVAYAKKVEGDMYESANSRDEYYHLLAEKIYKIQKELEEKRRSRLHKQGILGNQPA
T8 sequence (P45481 586-665 Y650A limits assumed): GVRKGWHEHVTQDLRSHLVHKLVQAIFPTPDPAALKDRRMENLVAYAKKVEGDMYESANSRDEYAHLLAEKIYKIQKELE
T2 sequence (P45481 586-665 L599A limits assumed): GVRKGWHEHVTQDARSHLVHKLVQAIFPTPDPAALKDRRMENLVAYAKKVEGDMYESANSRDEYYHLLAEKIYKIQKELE
T7 sequence (P45481 586-665 Q661A limits assumed): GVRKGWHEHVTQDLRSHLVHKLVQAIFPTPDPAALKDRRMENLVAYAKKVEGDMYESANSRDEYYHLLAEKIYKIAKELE
T9 sequence (P45481 586-665 limits assumed): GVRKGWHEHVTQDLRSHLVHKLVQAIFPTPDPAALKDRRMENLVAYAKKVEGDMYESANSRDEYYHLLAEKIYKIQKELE
T16 sequence (P45481 586-665 Y658F limits assumed): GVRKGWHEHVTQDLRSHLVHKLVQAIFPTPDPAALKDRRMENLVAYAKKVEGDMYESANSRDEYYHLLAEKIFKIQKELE
T14 sequence (P45481 586-665 L652A/L653A): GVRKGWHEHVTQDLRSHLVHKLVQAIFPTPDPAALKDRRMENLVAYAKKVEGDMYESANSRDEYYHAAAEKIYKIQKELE
T4 sequence (P45481 586-665 L603A limits assumed): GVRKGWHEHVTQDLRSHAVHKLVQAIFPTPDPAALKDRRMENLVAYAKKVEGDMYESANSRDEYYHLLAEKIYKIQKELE
T1 sequence (P45481 586-665 K606A limits assumed): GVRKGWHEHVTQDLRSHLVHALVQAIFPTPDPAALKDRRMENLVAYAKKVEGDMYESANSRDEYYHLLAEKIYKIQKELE

Kd (CBP KIX K606A) [µM] | Kd (CBP KIX L599A) [µM] | Kd (CBP KIX I657A) [µM] | Kd (CBP KIX L603A) [µM] | Kd (CBP KIX I660A) [µM] | Kd ([1]; fluorescein-labeled phosphopeptide, read-out: Kd HisKIX, phosphorylated peptide (P)) [µM] | Kd ([1]; label shows phosphorylated (P) or unphosphorylated (U) form, read-out: Kd HisKIX) | Kd (CBP KIX Q661A) [µM] | Kd (CBP KIX Y650A) [µM] | Kd (CBP KIX wild type) [µM] | Kd (Carbonic anhydrase II) [µM] | Kd (CBP KIX Y658A) [µM] | Kd (CBP KIX E655A) [µM] | Kd (Calmodulin) [µM] | Kd (CBP KIX LL652-3AA) [µM] | Kd (CBP KIX K662A) [µM] | Kd (CBP KIX Y658F) [µM] | Kd (GST-KIX) [µM] | Compound | Kd (KIX) [µM]
1.2 ± 0.1 | 3.3 ± 0.3 | 3.6 ± 0.4 | 2.5 ± 0.3 | 6.1 ± 0.7 | 0.624 ± 0.049 | 1.5 to 3.1 µM and 1.5 µM | 0.41 ± 0.06 | 1.3 ± 0.2 | 0.54 ± 0.06 | 79 ± 13 | 1.7 ± 0.4 | 1.7 ± 0.2 | ≥ 168 | 0.14 ± 0.02 | 1.8 ± 0.3 | 2.8 ± 0.4 | 0.714 ± 0.128 | CC[C@H](C)[C@H](NC(=O)CN)C(=O)N[C@@H](CO)C(=O)N[C@@H](Cc1c[nH]c2ccccc12)C(=O)N1CCC[C@H]1C(=O)N[C@H](C(=O)N[C@@H](Cc1ccccc1)C(=O)N[C@@H](CCC(=O)O)C(=O)NCC(=O)N[C@@H](CC(=O)O)C(=O)N[C@@H](CC(=O)O)C(=O)N[C@@H](C)C(=O)N1CCC[C@H]1C(=O)N[C@H](C(=O)N[C@@H](CCCNC(=N)N)C(=O)N[C@@H](CCCNC(=N)N)C(=O)N[C@@H](CC(C)C)C(=O)N[C@@H](CO)C(=O)N[C@@H](Cc1ccccc1)C(=O)N[C@@H](Cc1ccccc1)C(=O)N[C@@H](Cc1ccc(O)cc1)C(=O)N[C@H](C(=O)N[C@@H](CC(C)C)C(=O)N[C@@H](CC(C)C)C(=O)N[C@@H](CC(=O)O)C(=O)N[C@@H](CC(C)C)C(=O)N[C@@H](Cc1ccc(O)cc1)C(=O)N[C@@H](CC(C)C)C(=O)N[C@@H](CC(=O)O)C(=O)N[C@@H](C)C(=O)N1CCC[C@H]1C(=O)NCC(=O)N[C@H](C(=O)N[C@@H](CSCC(=O)Nc1ccc2c(c1)C(=O)OC21c2ccc(O)cc2Oc2cc(O)ccc21)C(N)=O)C(C)C)[C@@H](C)CC)C(C)C)[C@@H](C)O [PPKID6] (H-GISWPTFEGDDAPVRRLSFFYILLDLYLDAPGVC(Fluorescein(5-NHCOCH2))-NH2) | 
 |  |  |  |  |  |  |  |  |  |  |  |  |  |  |  |  |  | KID(129-149)^P: phosphorylated CREB KID residues 129-149, literature (SDAPGVPRIEEEKSEEETSAP; also: phosphorylated, sites not given here; UniProt P16220 129-149, looked up, fragment) | 80
